Source: patent US11708348B2, “Protease inhibitors for treatment of coronavirus infections” (The Scripps Research Institute, priority 2021, dated 2023)
Like-named read-outs stand apart in the source and are kept apart here.

Tested on: SARS-CoV-2 strain USA-WA1/2020
Experiment: microbe, parasite or virus in culture
Assay type: cell-based
Conditions: Severe acute respiratory syndrome coronavirus 2, HeLa-ACE2, 24 h, read-out: EC50, uM (Hela)
[1] = HeLa-ACE2 cells, SARS-CoV-2 infection, 24 h, class symbols
[2] = HeLa-ACE2 cells, SARS-CoV-2 infection, 24 h
[3] = HeLa-ACE2 cells, SARS-CoV-2 infection, 24 h, bound printed in cell

Q: For `CC(C)(NC(=O)C(=O)N[C@@H](CC1CCCCC1)C(=O)N[C@@H](C[C@@H]1CCNC1=O)C(=O)COC(F)(F)F)C(F)(F)F` [Compound 212, N1-((S)-3-cyclohexyl-1-oxo-1-(((S)-3-oxo-1-((S)-2-oxopyrrolidin-3-yl)-4-(trifluoromethoxy)butan-2-yl)amino)propan-2-yl)-N2-(1,1,1-trifluoro-2-methylpropan-2-yl)oxalamide], which EC50 [1] is on record?
A: The EC50 was under 0.05 µM.

Q: For `CC(C)C[C@H](NC(=O)C(=O)Nc1ccc(Br)cc1F)C(=O)N[C@@H](C[C@@H]1CCNC1=O)C(=O)COc1c(F)c(F)cc(F)c1F` [Compound 96, N1-(4-bromo-2-fluorophenyl)-N2-((S)-4-methyl-1-oxo-1-(((S)-3-oxo-1-((S)-2-oxopyrrolidin-3-yl)-4-(2,3,5,6-tetrafluorophenoxy)butan-2-yl)amino)pentan-2-yl)oxalamide], which EC50 is on record?
A: Its EC50 is 0.05 to 0.2 µM.

Q: For `CC(C)(F)c1cc(C(=O)N2C[C@H]3[C@@H]([C@H]2C(=O)N[C@@H](C[C@@H]2CCNC2=O)C(=O)COC(F)(F)F)C3(C)C)no1` [Compound 478, (1R,2S,5S)-3-(5-(2-fluoropropan-2-yl)isoxazole-3-carbonyl)-6,6-dimethyl-N-((S)-3-oxo-1-((S)-2-oxopyrrolidin-3-yl)-4-(trifluoromethoxy)butan-2-yl)-3-azabicyclo[3.1.0]hexane-2-carboxamide], which EC50 [2] is on record?
A: The EC50 was under 0.05 µM.

Q: How did the EC50 [2] turn out when `O=C(Nc1cccc(F)c1F)C(=O)N1CC2(CC2)C[C@H]1C(=O)N[C@@H](C[C@@H]1CCNC1=O)C(=O)COC(F)(F)F` [Compound 598, (S)-5-(2-((2,3-difluorophenyl)amino)-2-oxoacetyl)-N-((S)-3-oxo-1-((S)-2-oxopyrrolidin-3-yl)-4-(trifluoromethoxy)butan-2-yl)-5-azaspiro[2.4]heptane-6-carboxamide] was run?
A: Its EC50 is under 0.05 µM.

Q: `CC(C)C[C@H](NC(=O)C(=O)Nc1ccccc1F)C(=O)N[C@@H](CCC(=O)N(C)C)C(=O)COc1c(F)c(F)cc(F)c1F` [Compound 123, N1-((S)-1-(((S)-6-(dimethylamino)-2,6-dioxo-1-(2,3,5,6-tetrafluorophenoxy)-hexan-3-yl)amino)-4-methyl-1-oxopentan-2-yl)-N2-(2-fluorophenyl)oxalamide] was tested. Which EC50 [1] did it give?
A: Its EC50 is 0.05 to 0.2 µM.

Q: Which EC50 [2] does the source give for `CC(C)(C)c1ccccc1NC(=O)C(=O)N1CC2(CC2)C[C@H]1C(=O)N[C@@H](C[C@@H]1CCNC1=O)C(=O)COC(F)(F)F` [Compound 613, (S)-5-(2-((2-(tert-butyl)phenyl)amino)-2-oxoacetyl)-N-((S)-3-oxo-1-((S)-2-oxopyrrolidin-3-yl)-4-(trifluoromethoxy)butan-2-yl)-5-azaspiro[2.4]heptane-6-carboxamide] here?
A: The EC50 was under 0.05 µM.

Q: With `O=C1NCC[C@H]1C[C@@H](NC(=O)[C@@H]1C[C@H]2C[C@H]2N1C(=O)[C@@H]1CCCO1)C(=O)COC(F)(F)F` [Compound 326, (1R,3S,5R)-N-(3-oxo-1-((S)-2-oxopyrrolidin-3-yl)-4-(trifluoromethoxy)butan-2-yl)-2-((S)-tetrahydrofuran-2-carbonyl)-2-azabicyclo[3.1.0]-hexane-3-carboxamide] as the compound, how does the EC50 [3] read?
A: Its EC50 is over 1 µM.

Q: `CC(C)C[C@H](NC(=O)C(=O)NC1CCOCC1)C(=O)N[C@@H](C[C@@H]1CCNC1=O)C(=O)COc1c(F)c(F)cc(F)c1F` [Compound 101, N1-((S)-4-methyl-1-oxo-1-(((S)-3-oxo-1-((S)-2-oxopyrrolidin-3-yl)-4-(2,3,5,6-tetrafluorophenoxy)butan-2-yl)amino)pentan-2-yl)-N2-(tetrahydro-2H-pyran-4-yl)oxalamide] was tested. Which EC50 [1] did it give?
A: The EC50 was 0.05 to 0.2 µM.

Q: `CC(C)(C)NC(=O)C(=O)N1C[C@@H]2CCC[C@@H]2[C@H]1C(=O)N[C@@H](Cc1ccc[nH]c1=O)C(=O)COC(F)(F)F` [Compound 574, (1S,3aR,6aS)-2-(2-(tert-butylamino)-2-oxoacetyl)-N-((S)-3-oxo-1-(2-oxo-1,2-dihydropyridin-3-yl)-4-(trifluoromethoxy)butan-2-yl)octahydrocyclo-penta[c]pyrrole-1-carboxamide] was tested. Which EC50 [2] did it give?
A: The EC50 was 0.5 to 1 µM.

Q: `CC(C)C[C@H](NC(=O)c1ccc2c(c1)OC(F)(F)O2)C(=O)N[C@@H](C[C@@H]1CCNC1=O)C(=O)COC(F)(F)F` [Compound 153, 2,2-difluoro-N-((S)-4-methyl-1-oxo-1-(((S)-3-oxo-1-((S)-2-oxopyrrolidin-3-yl)-4-(trifluoromethoxy)butan-2-yl)amino)pentan-2-yl)benzo[d][l,3]dioxole-5-carboxamide] was tested. Which EC50 [1] did it give?
A: The EC50 was under 0.05 µM.

Q: Which EC50 [1] does the source give for `CC(C)C[C@@H](OC(=O)NC(C)C)C(=O)N1CC2(CC2)C[C@H]1C(=O)N[C@@H](C[C@@H]1CCNC1=O)C(=O)COC(F)(F)F` [Compound 329, (R)-4-methyl-1-oxo-1-((S)-6-(((S)-3-oxo-l-((S)-2-oxopyrrolidin-3-yl)-4-(trifluoromethoxy)butan-2-yl)carbamoyl)-5-azaspiro[2.4]heptan-5-yl)pentan-2-yl isopropylcarbamate] here?
A: Its EC50 is under 0.05 µM.

Q: With `CC(C)C[C@H](NC(=O)C(C)(C)O)C(=O)N[C@@H](C[C@@H]1CCNC1=O)C(=O)COC(F)(F)F` [Compound 353, (S)-2-(2-hydroxy-2-methylpropanamido)-4-methyl-N-((S)-3-oxo-1-((S)-2-oxopyrrolidin-3-yl)-4-(trifluoromethoxy)butan-2-yl)pentanamide] as the compound, how does the EC50 [1] read?
A: Its EC50 is 0.05 to 0.2 µM.

Q: With `CC(C)(C)c1ccccc1NC(=O)C(=O)N1C[C@@H]2CCC[C@@H]2[C@H]1C(=O)N[C@@H](C[C@@H]1CCNC1=O)C(=O)COC(F)(F)F` [Compound 615, (1S,3aR,6aS)-2-(2-((2-(tert-butyl)phenyl)amino)-2-oxoacetyl)-N-((S)-3-oxo-1-((S)-2-oxopyrrolidin-3-yl)-4-(trifluoromethoxy)butan-2-yl)octahydrocyclopenta[c]pyrrole-1-carboxamide] as the compound, how does the EC50 [2] read?
A: The EC50 was under 0.05 µM.

Q: With `CC(C)C[C@H](NC(=O)C(=O)Nc1ccccc1Cc1ccccc1)C(=O)N[C@@H](C[C@@H]1CCNC1=O)C(=O)COc1c(F)c(F)cc(F)c1F` [Compound 57, N1-(2-benzylphenyl)-N2-((S)-4-methyl-1-oxo-1-(((S)-3-oxo-1-((S)-2-oxopyrrolidin-3-yl)-4-(2,3,5,6-tetrafluorophenoxy)butan-2-yl)amino)pentan-2-yl)oxalamide] as the compound, how does the EC50 [1] read?
A: Its EC50 is 0.2 to 0.5 µM.

Q: With `CC(C)C[C@H](NC(=O)[C@H]1CCCO1)C(=O)N[C@@H](C[C@@H]1CCNC1=O)C(=O)COc1c(F)c(F)cc(F)c1F` [Compound 26, (R)-N-((S)-4-methyl-1-oxo-1-(((S)-3-oxo-1-((S)-2-oxopyrrolidin-3-yl)-4-(2,3,5,6-tetrafluorophenoxy)butan-2-yl)amino)pentan-2-yl)tetrahydrofuran-2-carboxamide] as the compound, how does the EC50 [1] read?
A: The EC50 was 0.2 to 0.5 µM.

Q: Which EC50 [3] does the source give for `O=C(Nc1ccccc1F)C(=O)NC1(C(=O)N[C@@H](C[C@@H]2CCNC2=O)C(=O)COC(F)(F)F)CCOCC1` [Compound 257, N1-(2-fluorophenyl)-N2-(4-(((S)-3-oxo-1-((S)-2-oxopyrrolidin-3-yl)-4-(trifluoromethoxy)butan-2-yl)carbamoyl)-tetrahydro-2H-pyran-4-yl)oxalamide] here?
A: Its EC50 is over 1 µM.

Q: `O=C(Nc1ccccc1F)C(=O)N1CCCCC[C@H]1C(=O)N[C@@H](C[C@@H]1CCNC1=O)C(=O)COC(F)(F)F` [Compound 584, (S)-1-(2-((2-fluorophenyl)amino)-2-oxoacetyl)-N-((S) -3-oxo-1-((S)-2-oxopyrrolidin-3-yl)-4-(trifluoromethoxy)butan-2-yl)azepane-2-carboxamide] was tested. Which EC50 [2] did it give?
A: The EC50 was under 0.05 µM.

Q: `COCC1(NC(=O)C(=O)N[C@@H](CC2CC2)C(=O)N[C@@H](C[C@@H]2CCNC2=O)C(=O)COC(F)(F)F)COC1` [Compound 238, N1-((S)-3-cyclopropyl-1-oxo-1-(((S)-3-oxo-1 ((S)-2-oxopyrrolidin-3-yl)-4-(trifluoromethoxy)butan-2-yl)amino)propan-2-yl)-N2-(3-(methoxymethyl)oxetan-3-yl)oxalamide] was tested. Which EC50 [1] did it give?
A: Its EC50 is 0.2 to 0.5 µM.

Q: How did the EC50 [1] turn out when `CC(C)C[C@H](NC(=O)C1Cc2ccccc2N1)C(=O)N[C@@H](C[C@@H]1CCNC1=O)C(=O)COC(F)(F)F` (stereo partly drawn) [Compound 204, N-((S)-4-methyl-1-oxo-1-(((S)-3-oxo-1-((S)-2-oxopyrrolidin-3-yl)-4-(trifluoromethoxy)butan-2-yl)amino)pentan-2-yl)indoline-2-carboxamide] was run?
A: The EC50 was 0.05 to 0.2 µM.

Q: For `CCC(CC)C(=O)N1CC2(CC2)C[C@H]1C(=O)N[C@@H](C[C@@H]1CCNC1=O)C(=O)COC(F)(F)F` [Compound 448, (S)-5-(2-ethylbutanoyl)-N-((S)-3-oxo-1-((S)-2-oxopyrrolidin-3-yl)-4-(trifluoromethoxy)butan-2-yl)-5-azaspiro[2.4]heptane-6-carboxamide], which EC50 [2] is on record?
A: The EC50 was 0.05 to 0.2 µM.

Q: For `Cc1ccc(F)cc1NC(=O)C(=O)N[C@@H](CC(C)C)C(=O)N[C@@H](C[C@@H]1CCNC1=O)C(=O)COc1c(F)c(F)cc(F)c1F` [Compound 83, Nl-(5-fluoro-2-methylphenyl)-N2-((S)-4-methyl-1-oxo-1-(((S)-3-oxo-1-((S)-2-oxopyrrolidin-3-yl)-4-(2,3,5,6-tetrafluorophenoxy)butan-2-yl)amino)pentan-2-yl)oxalamide], which EC50 [1] is on record?
A: Its EC50 is under 0.05 µM.

Q: How did the EC50 [1] turn out when `COc1ccc(NC(=O)C(=O)N[C@@H](CC(C)C)C(=O)N[C@@H](C[C@@H]2CCNC2=O)C(=O)COc2c(F)c(F)cc(F)c2F)cc1` [Compound 121, N1-(4-methoxyphenyl)-N2-((S)-4-methyl-1-oxo-1-(((S)-3-oxo-1-((S)-2-oxopyrrolidin-3-yl)-4-(2,3,5,6-tetrafluorophenoxy)butan-2-yl)amino)pentan-2-yl)oxalamide] was run?
A: The EC50 was under 0.05 µM.

Q: `CC1(CC(NC(=O)C(=O)NC2CC2)C(=O)N[C@@H](C[C@@H]2CCNC2=O)C(=O)COC(F)(F)F)CC1` (stereo partly drawn) [Compound 578, N1-cyclopropyl-N2-(3-(1-methylcyclopropyl)-1-oxo-1-(((S)-3-oxo-1-((S)-2-oxopyrrolidin-3-yl)-4-(trifluoromethoxy)butan-2-yl)amino)propan-2-yl)oxalamide] was tested. Which EC50 [2] did it give?
A: Its EC50 is under 0.05 µM.
